Laboratory results from PubChem BioAssay AID256 (DTP/NCI, 2004).
Values joined by “and” are separate entries in the source; they are usually repeats but may differ in a detail not shown here. Equal values may be shown once. Toxic doses and inconclusive results are not listed. Rule for the calls: active = survival T/C of 150% or more; inactive = T/C below 125% in these data.

System: CD2F1 mice, L1210 leukemia ip, survival T/C
Experiment: NCI In Vivo Anticancer Drug Screen. Data for tumor model L1210 Leukemia (intraperitoneal) in CD2F1 (CDF1) mice
Settings: higher = longer survival
Procedure, shortened: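 Implant tumor; dose compound or vehicle; measure endpoint in both groups; report treated divided by control.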

[1] = endpoint: mean survival time, dose: 50.0 mg/kg/injection, schedule: Q04DX002 (ip), vehicle: saline with Tween-80
[2] = endpoint: mean survival time, dose: 100.0 mg/kg/injection, schedule: Q04DX002 (ip), vehicle: saline with Tween-80
[3] = endpoint: mean survival time, dose: 100.0 mg/kg/injection, schedule: Q01DX009 (ip), vehicle: saline with Tween-80
[4] = endpoint: mean survival time, dose: 200.0 mg/kg/injection, schedule: Q01DX009 (ip), vehicle: saline with Tween-80
[5] = endpoint: mean survival time, dose: 200.0 mg/kg/injection, schedule: Q04DX002 (ip), vehicle: saline with Tween-80
[6] = endpoint: mean survival time, dose: 400.0 mg/kg/injection, schedule: Q01DX009 (ip), vehicle: saline with Tween-80
[7] = endpoint: mean survival time, dose: 400.0 mg/kg/injection, schedule: Q04DX002 (ip), vehicle: saline with Tween-80
[8] = endpoint: mean survival time, dose: 100.0 mg/kg/injection, schedule: Q04DX003 (ip), vehicle: saline with Tween-80
[9] = endpoint: mean survival time, dose: 200.0 mg/kg/injection, schedule: Q04DX003 (ip), vehicle: saline with Tween-80
[10] = endpoint: mean survival time, dose: 400.0 mg/kg/injection, schedule: Q04DX003 (ip), vehicle: saline with Tween-80

Measured: T/C

COc1ccccc1N=Nc1c(O)n(-c2ccccc2OC)c(=S)n(-c2ccc(C)cc2)c1=O
inactive: endpoint: mean survival time, dose: 25.0 mg/kg/injection, schedule: Q04DX002 (ip), vehicle: saline with Tween-80 90 % of control | [1] 90 % of control | [2] 90 % of control

CC1(C)OCC2OC3(C(=O)O)OC(C)(C)OC3C2O1 (centres undefined)
inactive: endpoint: mean survival time, dose: 50.0 mg/kg/injection, schedule: Q01DX005 (ip), vehicle: saline with Tween-80 88 % of control | endpoint: mean survival time, dose: 50.0 mg/kg/injection, schedule: Q01DX009 (ip), vehicle: saline with Tween-80 98 % of control | [1] 108 % of control | endpoint: mean survival time, dose: 100.0 mg/kg/injection, schedule: Q01DX005 (ip), vehicle: saline with Tween-80 88 % of control | [3] 95 % of control | [2] 97 % of control | endpoint: mean survival time, dose: 200.0 mg/kg/injection, schedule: Q01DX005 (ip), vehicle: saline with Tween-80 92 % of control | [4] 92 % of control | [5] 93 % of control | endpoint: mean survival time, dose: 400.0 mg/kg/injection, schedule: Q01DX005 (ip), vehicle: saline with Tween-80 88 % of control | [6] 88 % of control | [7] 86 % of control

CC1CC(C)SC(C(C)(C)C)S1 (centres undefined)
inactive: endpoint: mean survival time, dose: 12.5 mg/kg/injection, schedule: Q04DX002 (ip), vehicle: saline 105 % of control | endpoint: mean survival time, dose: 25.0 mg/kg/injection, schedule: Q04DX002 (ip), vehicle: saline 97 % of control | endpoint: mean survival time, dose: 50.0 mg/kg/injection, schedule: Q04DX002 (ip), vehicle: saline 102 % of control

[O-][n+]1cc(-c2ccccc2)cc2ccccc21
inactive: endpoint: mean survival time, dose: 50.0 mg/kg/injection, schedule: Q04DX003 (ip), vehicle: saline with Tween-80 97 % of control | [8] 97 % of control

CCN(Cc1ccccc1)c1ccc(SC#N)cc1
inactive: endpoint: mean survival time, dose: 100.0 mg/kg/injection, schedule: Q01DX001 (ip), vehicle: saline 100 % of control | endpoint: mean survival time, dose: 200.0 mg/kg/injection, schedule: Q01DX001 (ip), vehicle: saline 100 % of control | endpoint: mean survival time, dose: 400.0 mg/kg/injection, schedule: Q01DX001 (ip), vehicle: saline 93 % of control

CN(C)/C=N\c1ncnc2c1ncn2C1OC(CO)C2OC(C)(C)OC21 (centres undefined)
inactive: [2] 109 % of control | [5] 109 % of control | [7] 114 % of control

Clc1nc(Cl)c(Nc2ccn[nH]2)nc1Cl
inactive: endpoint: mean survival time, dose: 100.0 mg/kg/injection, schedule: Q04DX003 (ip), vehicle: saline sonified 100 % of control | endpoint: mean survival time, dose: 200.0 mg/kg/injection, schedule: Q04DX003 (ip), vehicle: saline sonified 98 % of control | endpoint: mean survival time, dose: 400.0 mg/kg/injection, schedule: Q04DX003 (ip), vehicle: saline sonified 95 % of control

O=C(O)/C=C\C(=O)Nc1ccc(Cl)cc1
inactive: [3] 102 % of control | [8] 108 % of control | [4] 93 % of control | [9] 97 % of control | [6] 98 % of control | [10] 94 % of control

O=C(c1ccccc1)C(O)c1ccccc1 (centres undefined)
inactive: [8] 90 % of control | [9] 96 % of control | [10] 97 % of control

CCCCCCCCCCCCCCCCCCN (tested in a mixture with another compound)
inactive: [2] 98 % of control | [5] 98 % of control

COc1cc[n+](C)cc1
inactive: endpoint: mean survival time, dose: 100.0 mg/kg/injection, schedule: Q04DX002 (ip), vehicle: saline 100 % of control | endpoint: mean survival time, dose: 200.0 mg/kg/injection, schedule: Q04DX002 (ip), vehicle: saline 91 % of control | endpoint: mean survival time, dose: 400.0 mg/kg/injection, schedule: Q04DX002 (ip), vehicle: saline 95 % of control

O=C1CCc2ccccc2C1C(=O)CC(O)(c1ccccc1)c1ccccc1 (centres undefined)
inactive: [8] 100 % of control | [9] 102 % of control

CCOC(=O)/C=C/C(=O)O.[Zn+2]
inactive: endpoint: mean survival time, dose: 3.12 mg/kg/injection, schedule: Q04DX003 (ip), vehicle: saline 100 % of control | endpoint: mean survival time, dose: 6.25 mg/kg/injection, schedule: Q04DX003 (ip), vehicle: saline 100 % of control | endpoint: mean survival time, dose: 12.5 mg/kg/injection, schedule: Q04DX003 (ip), vehicle: saline 100 % of control

Cc1cn(C2CC(O)C(COP(N)(N)=O)O2)c(=O)[nH]c1=O (centres undefined)
inactive: endpoint: mean survival time, dose: 12.5 mg/kg/injection, schedule: Q01DX005 (ip), vehicle: distilled water + Tween-80 98 % of control | endpoint: mean survival time, dose: 25.0 mg/kg/injection, schedule: Q01DX005 (ip), vehicle: distilled water + Tween-80 98 % of control | endpoint: mean survival time, dose: 50.0 mg/kg/injection, schedule: Q01DX005 (ip), vehicle: distilled water + Tween-80 98 % of control | endpoint: mean survival time, dose: 100.0 mg/kg/injection, schedule: Q01DX005 (ip), vehicle: distilled water + Tween-80 96 % of control | endpoint: mean survival time, dose: 200.0 mg/kg/injection, schedule: Q01DX005 (ip), vehicle: distilled water + Tween-80 98 % of control

Nc1ccc(/C=C/c2ccnc3ccccc23)cc1
inactive: endpoint: mean survival time, dose: 4.0 mg/kg/injection, schedule: Q01DX Z (ip), vehicle: saline 104 % of control | endpoint: mean survival time, dose: 8.0 mg/kg/injection, schedule: Q01DX Z (ip), vehicle: saline 101 % of control | endpoint: mean survival time, dose: 16.0 mg/kg/injection, schedule: Q01DX Z (ip), vehicle: saline 98 % of control

O=C(O)CC[P+](c1ccccc1)(c1ccccc1)c1ccccc1
inactive: [3] 95 % of control | [4] 92 % of control | [6] 89 % of control

COC(=O)CC1C2CCc3cc(OC)ccc3C2CCC1(C)C(=O)OC (centres undefined)
inactive: [3] 97 % of control | [4] 101 % of control | [6] 94 % of control

Fc1ccc2ccnnc2c1
inactive: endpoint: mean survival time, dose: 100.0 mg/kg/injection, schedule: Q01DX001 (ip), vehicle: other 103 % of control | endpoint: mean survival time, dose: 200.0 mg/kg/injection, schedule: Q01DX001 (ip), vehicle: other 95 % of control

CC(=O)SC(c1ccccc1)(c1ccccc1)c1ccccc1
inactive: [8] 95 % of control and 103 % of control | [9] 91 % of control and 97 % of control | [10] 90 % of control and 100 % of control

O=c1oc(-c2ccc(OCc3ccccc3)c(OCc3ccccc3)c2)c2c3ccccc3ccn12
inactive: endpoint: median survival time, dose: 25.0 mg/kg/injection, schedule: Q04DX003 (ip), vehicle: saline with Tween-80 88 % of control | endpoint: median survival time, dose: 50.0 mg/kg/injection, schedule: Q04DX003 (ip), vehicle: saline with Tween-80 88 % of control | endpoint: median survival time, dose: 100.0 mg/kg/injection, schedule: Q04DX003 (ip), vehicle: saline with Tween-80 88 % of control | endpoint: median survival time, dose: 200.0 mg/kg/injection, schedule: Q04DX003 (ip), vehicle: saline with Tween-80 100 % of control

O=CNc1ccc(O)cc1
inactive: [8] 93 % of control | [9] 101 % of control | [10] 103 % of control

CC[C@@]1(O)C[C@H](OC2CC(N(C)C)C(OC3CC(O)C(OC4CC(O)C(O)C(C)O4)C(C)O3)C(C)O2)c2c(cc3c(c2O)C(=O)c2c(O)ccc(O)c2C3=O)[C@H]1C(=O)OC (some centres undefined)
inactive: endpoint: mean survival time, dose: 3.8 mg/kg/injection, schedule: Q01DX001 (ip), vehicle: other 117 % of control | endpoint: mean survival time, dose: 7.5 mg/kg/injection, schedule: Q01DX001 (ip), vehicle: other 120 % of control | endpoint: mean survival time, dose: 15.0 mg/kg/injection, schedule: Q01DX001 (ip), vehicle: other 96 % of control

COC(=O)c1cc([N+](=O)[O-])c(Sc2ncnc3nc[nH]c23)c([N+](=O)[O-])c1
inactive: endpoint: mean survival time, dose: 11.0 mg/kg/injection, schedule: Q01DX005 (ip), vehicle: other 103 % of control | endpoint: mean survival time, dose: 12.5 mg/kg/injection, schedule: Q01DX005 (ip), vehicle: other 110 % of control | endpoint: mean survival time, dose: 16.5 mg/kg/injection, schedule: Q01DX005 (ip), vehicle: other 124 % of control | endpoint: mean survival time, dose: 25.0 mg/kg/injection, schedule: Q01DX005 (ip), vehicle: other 95 % of control | endpoint: mean survival time, dose: 50.0 mg/kg/injection, schedule: Q01DX005 (ip), vehicle: other 115 % of control

CC(=O)CC(=O)Nc1ccc(N=Nc2ccccc2)cc1
inactive: [3] 101 % of control | [4] 101 % of control
